Data: paper PMC10160035, “Mechanism-based and computational modeling of hydrogen sulfide biogenesis inhibition: interfacial inhibition” (Scientific Reports, 2023)

Experiments:
[1] = tested on: CSE; details: cited from earlier work
[2] = biological target: T1, human CSE (cystathionine γ-lyase) (Homo sapiens, UniProt P32929)
[3] = biological target: T1, human CSE (cystathionine γ-lyase); assay: lead acetate assay of H2S production from cysteine; type: biochemical; design: 6xHis (TEV-cleavable) (N, cleaved yes); made in house; host or cells: E. coli One Shot BL-21 Star (DE3)
Procedure: Production of H2S from cysteine by CSE was measured spectrophotometrically by the lead acetate assay as previously described. […] Then, the formation of lead sulfide resulting from the reactivity of H2S with lead acetate was continuously monitored at 390 nm. The half inhibitory concentration (IC50) value was obtained by plotting the relative activity of CSE (A, in per cent) as a function of the concentration of D-pen and by fitting the data with Eq. (4), where ∆A is the maximal effect of D-pen on the activity of CSE and n is the Hillslope that characterizes the slope of the curve at its midpoint.4 A=ΔA/1+[D-Pen]/IC50^n
Next, 40 μg of CSE was added to the assay mixture to initiate the reaction, which was followed at 390 nm. The molar extinction coefficient for lead sulfide previously determined was then used to obtain vH2S[24]. The CSE-D-penicillamine dissociation constants for competitive and uncompetitive inhibition were calculated by plotting vH2S as a function of cysteine concentration and using Eq. (5).5 vH2S=Vmax×[Cys]/KM×1+[D-Pen]/Kic+[Cys]×1+[D-Pen]/Kiu

[4] = biological target: T1, human CSE (cystathionine γ-lyase); assay: biochemical
[5] = biological target: T2, recombinant human CSE (cystathionine γ-lyase), tag-less (Homo sapiens, UniProt P32929); assay: D-penicillamine binding followed by PLP fluorescence quenching; details: PLP fluorescence at 495 nm, 100 mM HEPES pH 7.4, 20 °C, n = 3 ± SD; read-out: Kd (dissociation constant between tag-less CSE and D-pen)
T2 construct: 6xHis (TEV-cleavable) (N, cleaved yes); made in house; host or cells: E. coli One Shot BL-21 Star (DE3)
T2 sequence (P32929 whole entry): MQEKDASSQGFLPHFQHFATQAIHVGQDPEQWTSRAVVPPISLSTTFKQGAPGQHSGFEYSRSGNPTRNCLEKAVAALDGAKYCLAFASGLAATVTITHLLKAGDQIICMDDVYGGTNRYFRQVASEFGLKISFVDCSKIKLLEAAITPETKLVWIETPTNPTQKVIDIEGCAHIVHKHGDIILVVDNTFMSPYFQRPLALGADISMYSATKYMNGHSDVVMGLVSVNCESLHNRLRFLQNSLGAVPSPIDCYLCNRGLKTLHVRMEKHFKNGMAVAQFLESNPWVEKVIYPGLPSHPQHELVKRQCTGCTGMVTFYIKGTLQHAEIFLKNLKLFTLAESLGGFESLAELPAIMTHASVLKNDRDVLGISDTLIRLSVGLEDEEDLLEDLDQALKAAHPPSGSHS
Procedure: The addition of D-pen induced a quenching of fluorescence. […] The black line represents the fit to the experimental data with a four-parameter logistic equation to obtain the dissociation binding constant of D-pen for CSE.
Fluorescence emission spectra were recorded 5 min after D-pen addition.

[6] = tested on: recombinant CSE (GST-CSE); details: 1 mM Cys, methylene blue assay, 10 min pre-incubation with CSE; read-out: IC50 towards H2S production; cited from earlier work
[7] = tested on: homogenated mouse aorta samples; design: method as in Brancaleone et al. (34); details: ref Brancaleone et al. (34), read-out: IC50 ex cellulo; cited from earlier work
[8] = biological target: the molecule itself; assay: SEC; HiLoad 16/600 Superdex 200, 0.5 mL/min, 100 mM HEPES pH 7.4, 150 mM NaCl; oligomeric state from the estimated apparent molecular mass

T1 sequence (P32929 whole entry): as above

## NCCO/C=C/[C@H](N)C(=O)O [aminoethoxyvinyglycine]
[1]
  inhibitory mode towards CSE: slow and tight binding inhibitor

## N[C@H](C(=O)O)C(F)(F)F [trifluoroalanine]
[1]
  inhibitory mode towards CSE: suicide inhibitors

## C#CCC(N)C(=O)O (stereo not shown) [propargylglycine]
[1]
  inhibitory mode towards CSE: suicide inhibitors

## O=C(O)C1=CC(=C(c2ccc(O)c(C(=O)O)c2)c2ccc(O)c(C(=O)O)c2)C=CC1=O [aurintricarboxylic acid]
[1]
  inhibitory mode towards CSE: competitive cofactor

## N[C@@H](CSCCCC(=O)O)C(=O)O [S-3-carboxypropyl-L-cysteine]
[1]
  inhibitory mode towards CSE: suicide inhibitors

## CC(C)(S)[C@@H](N)C(=O)O [D-pen, D-penicillamine]
[2]; 0.1–3 mM cystathionine, 100 mM HEPES pH 7.4, 37 °C
  Kiu (uncompetitive inhibition), α,γ-elimination of cystathionine: 8.55 ± 0.89 mM
[2]; Lineweaver–Burk analysis
  mode of inhibition of cystathionine cleavage: mixed inhibition mechanism
[3]; 1 mM Cys, 200 mM HEPES pH 7.4, 37 °C, no pre-incubation with enzyme, read-out: IC50 towards H2S production
  IC50: 2040 ± 130 µM
[3]; 1–10 mM cysteine, 100 mM HEPES pH 7.4, 37 °C
  Kiu (dissociation constant for uncompetitive inhibition), H2S biogenesis from Cys: 8.60 ± 1.22 mM
[3]; 1–10 mM cysteine, 100 mM HEPES pH 7.4, 37 °C, read-out: Kic (dissociation constant for competitive inhibition), H2S biogenesis from Cys
  Ki: 1820 ± 350 µM
[3]; Lineweaver–Burk analysis, varying Cys
  mode of inhibition of H2S biogenesis: mixed inhibition mechanism
[3]; inhibition followed as a function of pre-incubating time
  effect of pre-incubation time on inhibition potency: not a slow-binding inhibitor
[4]
  Ki: 2540 ± 650 µM
[5]
  Kd: 15000 ± 4600 µM
[6]
  IC50: 270 µM
[7]
  IC50: 44 µM

## C#CCNC(=O)[C@@H]1CSC(=O)N1 [(R)-2-oxo-N-(prop-2-yn-1-yl)thiazolidine-4-carboxamide]
[1]
  inhibitory mode towards CSE: substrate inhibitors

B1: human recombinant cystathionine γ-lyase with N-terminal 6xHis-tag (enzyme)
chain: MQEKDASSQGFLPHFQHFATQAIHVGQDPEQWTSRAVVPPISLSTTFKQGAPGQHSGFEYSRSGNPTRNCLEKAVAALDGAKYCLAFASGLAATVTITHLLKAGDQIICMDDVYGGTNRYFRQVASEFGLKISFVDCSKIKLLEAAITPETKLVWIETPTNPTQKVIDIEGCAHIVHKHGDIILVVDNTFMSPYFQRPLALGADISMYSATKYMNGHSDVVMGLVSVNCESLHNRLRFLQNSLGAVPSPIDCYLCNRGLKTLHVRMEKHFKNGMAVAQFLESNPWVEKVIYPGLPSHPQHELVKRQCTGCTGMVTFYIKGTLQHAEIFLKNLKLFTLAESLGGFESLAELPAIMTHASVLKNDRDVLGISDTLIRLSVGLEDEEDLLEDLDQALKAAHPPSG
modifications: pyridoxal 5'-phosphate as internal aldimine with Lys212
notes: cystathionine γ-lyase (CSE), human; also called CSE; hCSE; source: E. coli One Shot BL-21 Star (DE3), purified (His-Trap HP, HiLoad 16/600 Superdex 200); not shown: His6, N-terminal, kept
[8]
  stoichiometry N: 4

B2: tag-less human recombinant cystathionine γ-lyase (enzyme)
chain: MQEKDASSQGFLPHFQHFATQAIHVGQDPEQWTSRAVVPPISLSTTFKQGAPGQHSGFEYSRSGNPTRNCLEKAVAALDGAKYCLAFASGLAATVTITHLLKAGDQIICMDDVYGGTNRYFRQVASEFGLKISFVDCSKIKLLEAAITPETKLVWIETPTNPTQKVIDIEGCAHIVHKHGDIILVVDNTFMSPYFQRPLALGADISMYSATKYMNGHSDVVMGLVSVNCESLHNRLRFLQNSLGAVPSPIDCYLCNRGLKTLHVRMEKHFKNGMAVAQFLESNPWVEKVIYPGLPSHPQHELVKRQCTGCTGMVTFYIKGTLQHAEIFLKNLKLFTLAESLGGFESLAELPAIMTHASVLKNDRDVLGISDTLIRLSVGLEDEEDLLEDLDQALKAAHPPSG
modifications: pyridoxal 5'-phosphate as internal aldimine with Lys212
notes: cystathionine γ-lyase (CSE), human; tag removed with TEV protease; also called tag-less CSE; CSE; not shown: His6, N-terminal, cleaved
[8]
  stoichiometry N: 4
